Results on 51 compounds are retold here after US20080287398A1, “COLD MENTHOL RECEPTOR-1 ANTAGONISTS” (priority 2007, published 2008).

The term IC50 denotes the concentration needed to halve the response being measured.

This test concerns the target T1, canine TRPM8 (Canis lupus familiaris, UniProt Q1A7N1).
T1 construct: expressed in transfected cells
In words: In vitro canine TRPM8 functional assay (Ca2+-sensitive dye, FLIPR/FDSS, icilin activation). It counts as cell-based. To be noted: HEK293 cells expressing canine TRPM8, icilin activation; for % I (5 μM): 5 μM compound; for IC50: eight-point dose-response; for inhibition at 1 µM: HEK293, read-out: % I (1 μM), 1 μM compound; for % I (1 μM): 1 μM compound; for % I (0.5 μM): 0.5 μM compound. Put shortly:
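Icilin challenge (final concentration producing ~80% of maximal response) followed a 5 min compound exposure in canine TRPM8-HEK293 cells dye-loaded with Calcium 3. Intracellular Ca2+ was read on FLIPR/FDSS. EC50 and IC50 values came from nonlinear sigmoidal dose-response fits of basal-subtracted, percent-of-maximum data averaged over quadruplicates.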

Molecules are shown by their SMILES. Where “and” joins values, the source holds several entries; their conditions need not be identical. Equal entries are not always repeated. Where two headings read alike, the source gives them in different places.

T1 sequence (Q1A7N1 1-1104): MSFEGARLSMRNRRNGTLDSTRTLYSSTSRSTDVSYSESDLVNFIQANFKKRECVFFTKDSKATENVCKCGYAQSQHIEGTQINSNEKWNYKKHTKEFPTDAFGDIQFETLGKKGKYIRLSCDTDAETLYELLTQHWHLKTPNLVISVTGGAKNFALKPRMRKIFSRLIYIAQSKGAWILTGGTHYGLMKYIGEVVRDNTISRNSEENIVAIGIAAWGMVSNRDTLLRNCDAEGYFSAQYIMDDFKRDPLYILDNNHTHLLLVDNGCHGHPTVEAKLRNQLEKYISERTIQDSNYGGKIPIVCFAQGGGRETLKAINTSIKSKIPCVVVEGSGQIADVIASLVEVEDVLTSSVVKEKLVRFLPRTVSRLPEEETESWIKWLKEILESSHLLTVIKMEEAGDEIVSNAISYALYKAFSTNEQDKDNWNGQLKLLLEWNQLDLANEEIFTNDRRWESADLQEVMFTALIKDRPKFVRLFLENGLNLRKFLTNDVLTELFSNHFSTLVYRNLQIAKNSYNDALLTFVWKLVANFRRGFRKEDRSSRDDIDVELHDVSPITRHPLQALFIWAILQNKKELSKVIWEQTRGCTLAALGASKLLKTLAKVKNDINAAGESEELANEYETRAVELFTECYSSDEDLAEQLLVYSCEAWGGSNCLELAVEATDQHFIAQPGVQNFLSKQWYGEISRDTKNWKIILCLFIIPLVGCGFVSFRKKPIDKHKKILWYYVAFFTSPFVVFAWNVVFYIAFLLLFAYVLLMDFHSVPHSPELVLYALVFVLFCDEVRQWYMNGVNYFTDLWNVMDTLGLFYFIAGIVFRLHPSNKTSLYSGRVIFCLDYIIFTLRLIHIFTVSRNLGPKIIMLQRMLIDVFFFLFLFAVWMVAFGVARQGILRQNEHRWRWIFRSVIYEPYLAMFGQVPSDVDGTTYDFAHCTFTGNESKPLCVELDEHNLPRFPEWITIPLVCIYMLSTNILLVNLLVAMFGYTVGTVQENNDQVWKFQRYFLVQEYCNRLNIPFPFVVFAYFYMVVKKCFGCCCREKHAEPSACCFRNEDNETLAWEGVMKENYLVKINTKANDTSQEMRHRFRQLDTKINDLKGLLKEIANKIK

For the compound `CCOP(=O)(Cc1cc2ccccc2s1)OCc1ccc(F)cc1` (centres unmarked) [Cpd 107], the “% I (5 μM)” value is listed as 99%. Where the note is “read-out: IC50”, the IC50 worked out at 1.3 µM.
As for `CCOP(=O)(Cc1cc2ccccc2s1)OCc1ccccc1F` (centres unmarked) [Cpd 109, Benzo[b]thiophen-2-ylmethyl-phosphonic acid ethyl ester 2-fluoro-benzyl ester], the “% I (5 μM)” value turned out to be 98% and the inhibition at 1 µM came to 17%. In addition, the half-inhibitory concentration (IC50) (IC50 (μM)) was found to be 1.47 µM.
Regarding `CCOP(=O)(Cc1cc2ccccc2s1)OCc1ccccc1Br` (centres unmarked) [Cpd 110], the “% I (1 μM)” value is given as 11% and the “% I (5 μM)” value is reported as 96%. Moreover, the half-inhibitory concentration (IC50) (read-out: IC50) came to 2.32 µM.
As to `CCOP(=O)(Cc1cc2ccccc2s1)OCc1ccccc1` (centres unmarked) [Cpd 111], the “% I (1 μM)” value turned out to be 14%.
Regarding `CCOP(=O)(OCC)C(Cc1cc2c(cc1Cl)OCO2)c1cc2ccccc2s1` (centres unmarked) [Cpd 112], the “% I (1 μM)” value came out at 42%.
Same read-out and setting: the result for `CCOP(=O)(OCC)C(Cc1cc(C(F)(F)F)ccc1C(F)(F)F)c1sc2ccccc2c1C` (centres unmarked) [Cpd 113] reads 25%.
Take `CCOP(=O)(OCC)C(Cc1ccccc1F)c1sc2ccccc2c1CN(C)C` (centres unmarked) [Cpd 114, [1-(3-Dimethylaminomethyl-benzo[b]thiophen-2-yl)-2-(2-fluoro-phenyl)-ethyl]-phosphonic acid diethyl ester]: the inhibition at 1 µM was 15%.
Consider `CCOP(=O)(OCC)C(Cc1ccccc1-c1ccccc1)c1sc2ccccc2c1C` (centres unmarked) [Cpd 115], for which the “% I (1 μM)” value was 69%.
`CCOP(=O)(OCC)C(Cc1ccc(F)c(F)c1)c1sc2c(C(F)(F)F)cccc2c1C` (centres unmarked) [Cpd 116]: the “% I (1 μM)” value was determined as 64%.
For the compound `CCOP(=O)(OCC)C(Cc1ccc(F)c(F)c1)c1sc2cc(Cl)ccc2c1C1CCCC1` (centres unmarked) [Cpd 117, [1-(6-Chloro-3-cyclopentyl-benzo[b]thiophen-2-yl)-2-(3,4-difluoro-phenyl)-ethyl]-phosphonic acid diethyl ester], the inhibition at 1 µM came to 28%.
Regarding `CCOP(=O)(OCC)C(Cc1ccc(F)c(F)c1)c1c(C)c2ccccc2[s+]1[O-]` (centres unmarked) [Cpd 118], the “% I (1 μM)” value is recorded as 23%.
`CC(C)OP(=O)(OC(C)C)C(Cc1ccc(F)c(F)c1)c1cc2ccccc2o1` (centres unmarked) [Cpd 120]: the “% I (1 μM)” value was determined as 102%. Further, for the setting “read-out: IC50”, the half-maximal inhibitory concentration (IC50) stood at 0.39 µM.
The corresponding values for `CC(C)OP(=O)(OC(C)C)C(Cc1cc(F)cc(F)c1)c1cc2ccccc2s1` (centres unmarked) [Cpd 121] are 103% and 0.35 µM.
Take `CC(C)OP(=O)(OC(C)C)C(Cc1cccc(F)c1F)c1cc2ccccc2s1` (centres unmarked) [Cpd 122]: the “% I (1 μM)” value is recorded as 102%. In addition, the IC50 (read-out: IC50) amounted to 0.35 µM.
The corresponding values for `CCC(C)P(=O)(C(C)CC)C(Cc1ccc(F)c(F)c1)c1oc2ccccc2c1Br` (centres unmarked) [Cpd 123] are 103% and 0.28 µM.
As for `CC(C)OP(=O)(OC(C)C)C(Cc1ccc(F)c(F)c1)c1oc2ccccc2c1Br` (centres unmarked) [Cpd 124], the “% I (1 μM)” value is given as 103%. Further, under “read-out: IC50”, the IC50 was 0.049 µM.
For `CC(C)OP(=O)(OC(C)C)C(Cc1ccc(F)c(C(F)(F)F)c1)c1cc2ccccc2s1` (centres unmarked) [Cpd 125], the “% I (1 μM)” value came to 103%. For the same compound, the IC50 (read-out: IC50) worked out at 0.39 µM.
On to `CC(C)OP(=O)(OC(C)C)C(Cc1cc(C(F)(F)F)cc(Cl)c1F)c1cc2ccccc2s1` (centres unmarked) [Cpd 126], for which the “% I (1 μM)” value is on record as 100%. Besides, the IC50 (read-out: IC50) was 0.41 µM.
In the case of `CCOP(=O)(OCC)C(Cc1ccc(F)c(F)c1)c1sc2ccccc2c1-c1cccnc1F` (centres unmarked) [Cpd 128, {2-(3,4-Difluoro-phenyl)-1-[3-(2-fluoro-pyridin-3-yl)-benzo[b]thiophen-2-yl]-ethyl}-phosphonic acid diethyl ester], the inhibition at 1 µM is 100%. For the setting “IC50 (μM)”, the half-maximal inhibitory concentration (IC50) turned out to be 0.02 µM.
Turning to `CCOP(=O)(OCC)C(Cc1ccc(F)c(F)c1)c1sc2ccccc2c1-c1ccc(F)nc1` (centres unmarked) [Cpd 130, {2-(3,4-Difluoro-phenyl)-1-[3-(6-fluoro-pyridin-3-yl)-benzo[b]thiophen-2-yl]-ethyl}-phosphonic acid diethyl ester], the inhibition at 1 µM turned out to be 100%. Moreover, under “IC50 (μM)”, the IC50 worked out at 0.11 µM.
For the compound `CCOP(=O)(OCC)C(Cc1ccc(F)c(F)c1)c1cc2cccnc2s1` (centres unmarked) [Cpd 131], the “% I (1 μM)” value is 28%.
With `CCOP(=O)(OCC)C(Cc1ccc(F)c(F)c1)c1sc2ncccc2c1Br` (centres unmarked) [Cpd 132, 1-[(3-Bromo-thieno[2,3-b]pyridin-2-yl)-2-(3,4-difluoro-phenyl)-ethyl]-phosphonic acid diethyl ester], the inhibition at 1 µM came to 102%. The midpoint of inhibition (IC50 (μM)), the IC50, lay at 0.11 µM.
Take `CC(C)OP(=O)(OC(C)C)C(Cc1cccc(F)c1)c1cc2ccccc2s1` (centres unmarked) [Cpd 133]: the “% I (1 μM)” value came out at 101%. Also, the IC50 (read-out: IC50) came out at 0.34 µM.
The corresponding values for `CC(C)OP(=O)(OC(C)C)C(Cc1cccc(Cl)c1)c1cc2ccccc2s1` (centres unmarked) [Cpd 134] are 101% and 0.34 µM.
Consider `CCOP(=O)(OCC)C(Cc1ccc(Cl)c(C(F)(F)F)c1)c1sc2ccccc2c1Br` (centres unmarked) [Cpd 139], for which the “% I (0.5 μM)” value stood at 102%. Also, for the setting “read-out: IC50”, the half-inhibitory concentration (IC50) stood at 0.06 µM.
In the same order, the values of `CCOP(=O)(OCC)C(Cc1cc(F)cc(C(F)(F)F)c1)c1sc2ccccc2c1Br` (centres unmarked) [Cpd 140] are 102% and 0.056 µM.
In the same order, the values of `CCOP(=O)(OCC)C(Cc1cccc(C(F)(F)F)c1)c1sc2ccccc2c1Br` (centres unmarked) [Cpd 141] are 100% and 0.051 µM.
The corresponding values for `CCOP(=O)(OCC)C(Cc1cccc(C(F)(F)F)c1F)c1sc2ccccc2c1Br` (centres unmarked) [Cpd 142] are 101% and 0.054 µM.
With `CCOP(=O)(OCC)C(Cc1ccc(F)c(OC)c1)c1sc2ccccc2c1Br` (centres unmarked) [Cpd 156], under “HEK293, read-out: % I (0.5 μM), 0.5 μM compound”, the inhibition at 0.5 µM stood at 103%. The half-maximal inhibitory concentration (IC50) (IC50 (μM)) was 0.015 µM and 0.032 µM.
Regarding `CC(C)OP(=O)(OC(C)C)C(Cc1ccc(C(F)(F)F)c(F)c1)c1sc2ccccc2c1Cl` (centres unmarked) [Cpd 174], the “% I (0.5 μM)” value is given as 104%. Also, the IC50 (read-out: IC50) came out at 0.089 µM.
On to `CC(C)OP(=O)(OC(C)C)C(Cc1ccc(C(F)(F)F)cc1)c1sc2ccccc2c1Cl` (centres unmarked) [Cpd 175], for which the “% I (0.5 μM)” value was 104%. The IC50 (read-out: IC50) worked out at 0.072 µM.
In the same order, the values of `COc1ccc(CC(c2sc3ccccc3c2Cl)P(=O)(OC(C)C)OC(C)C)cc1C(F)(F)F` (centres unmarked) [Cpd 176] are 104% and 0.131 µM.
As to `CC(C)OP(=O)(OC(C)C)C(Cc1cccc(C(F)(F)F)c1Cl)c1sc2ccccc2c1Cl` (centres unmarked) [Cpd 177], the “% I (0.5 μM)” value worked out at 96%. For the same compound, where the note is “read-out: IC50”, the 50% inhibitory concentration (IC50) amounted to 0.139 µM.
The corresponding values for `CC(C)OP(=O)(OC(C)C)C(Cc1cc(C(F)(F)F)ccc1Cl)c1sc2ccccc2c1Cl` (centres unmarked) [Cpd 178] are 79% and 0.355 µM.
In the same order, the values of `CC(C)OP(=O)(OC(C)C)C(Cc1ccccc1)c1sc2ccccc2c1Cl` (centres unmarked) [Cpd 179] are 103% and 0.068 µM.
The corresponding values for `CC(C)OP(=O)(OC(C)C)C(Cc1cccc(Cl)c1)c1sc2ccccc2c1Cl` (centres unmarked) [Cpd 180] are 103% and 0.075 µM.
For the compound `CC(C)OP(=O)(OC(C)C)C(Cc1ccc(Cl)cc1)c1sc2ccccc2c1Cl` (centres unmarked) [Cpd 181], the “% I (0.5 μM)” value stood at 103%. Where the note is “read-out: IC50”, the IC50 was 0.112 µM.
The corresponding values for `CC(C)OP(=O)(OC(C)C)C(Cc1cccc(Br)c1)c1sc2ccccc2c1Cl` (centres unmarked) [Cpd 182] are 104% and 0.075 µM.
In the same order, the values of `CC(C)OP(=O)(OC(C)C)C(Cc1c(Cl)cccc1Cl)c1sc2ccccc2c1Cl` (centres unmarked) [Cpd 183] are 103% and 0.131 µM.
In the same order, the values of `CC(C)OP(=O)(OC(C)C)C(Cc1ccc(OC(F)(F)F)c(Cl)c1)c1sc2ccccc2c1Cl` (centres unmarked) [Cpd 184] are 104% and 0.057 µM.
Regarding `CC(C)OP(=O)(OC(C)C)C(Cc1cccc(Cl)c1F)c1sc2ccccc2c1Cl` (centres unmarked) [Cpd 185], the “% I (0.5 μM)” value worked out at 103%. Moreover, the half-maximal inhibitory concentration (IC50) (read-out: IC50) came out at 0.071 µM.
The corresponding values for `CC(C)OP(=O)(OC(C)C)C(Cc1cc(F)cc(Cl)c1)c1sc2ccccc2c1Cl` (centres unmarked) [Cpd 186] are 104% and 0.051 µM.
In the same order, the values of `CC(C)OP(=O)(OC(C)C)C(Cc1ccc(OC(F)(F)F)cc1)c1sc2ccccc2c1Cl` (centres unmarked) [Cpd 187] are 103% and 0.062 µM.
The corresponding values for `CC(C)OP(=O)(OC(C)C)C(Cc1ccc(F)c(C(F)(F)F)c1)c1sc2ccccc2c1Cl` (centres unmarked) [Cpd 188] are 103% and 0.064 µM.
With `CC(C)OP(=O)(OC(C)C)C(Cc1ccc(C(F)(F)F)cc1F)c1sc2ccccc2c1Cl` (centres unmarked) [Cpd 191], the “% I (0.5 μM)” value is 104%. Moreover, the IC50 (read-out: IC50) came out at 0.125 µM.
As for `CC(C)OP(=O)(OC(C)C)C(Cc1cccc(F)c1)c1sc2ccccc2c1Br` (centres unmarked) [Cpd 192], the “% I (1 μM)” value came out at 103%. In addition, the IC50 (read-out: IC50) was 0.038 µM.
Turning to `CC(C)OP(=O)(OC(C)C)C(Cc1cc(F)cc(F)c1)c1sc2ccccc2c1Br` (centres unmarked) [Cpd 193], the “% I (1 μM)” value came to 103%. For the same compound, the half-maximal inhibitory concentration (IC50) (read-out: IC50) amounted to 0.059 µM.
Take `CC(C)OP(=O)(OC(C)C)C(Cc1cccc(F)c1F)c1sc2ccccc2c1Br` (centres unmarked) [Cpd 194]: the “% I (1 μM)” value worked out at 103%. The half-maximal inhibitory concentration (IC50) (read-out: IC50) stood at 0.041 µM.
Turning to `CC(C)OP(=O)(OC(C)C)C(Cc1cc(C(F)(F)F)cc(Cl)c1F)c1sc2ccccc2c1Br` (centres unmarked) [Cpd 195], the “% I (1 μM)” value was determined as 103%. Also, where the note is “read-out: IC50”, the half-inhibitory concentration (IC50) was 0.061 µM.
On to `CC(C)OP(=O)(OC(C)C)C(Cc1ccccc1F)c1sc2ccccc2c1Br` (centres unmarked) [Cpd 196], for which the “% I (1 μM)” value came out at 100%. For the same compound, the concentration for half-maximal inhibition (IC50) (read-out: IC50) was 0.048 µM.
With `CC(C)OP(=O)(OC(C)C)C(Cc1ccccc1F)c1sc2cccc(Br)c2c1Br` (centres unmarked) [Cpd 198], the “% I (1 μM)” value was 98%. The IC50 (read-out: IC50) amounted to 0.357 µM.
